# Data published in patent US20240279201A1, “DUAL WNT SIGNALING PATHWAY INHIBITORS AND AMPK ACTIVATORS FOR TREATMENTS OF DISEASE” (priority 2021, published 2024).
# Columns and labels:
# [1] = test system: Wnt/β-Catenin signaling pathway; test: Wnt signaling luciferase (TOPflash) reporter gene assay; format: cell-based; settings: for IC50: luciferase reporter gene assay, mean of three independent experiments, read-out: IC50 (nM) to inhibit the Wnt signaling activity
# Text: A dual-luciferase gene reporter assay was used to test inhibitory activities of new compounds on Wnt signaling. […] Therefore, the effects of new compounds on AMPK was examined. […]
# [2] = Cytotoxicity (CC50) during the luciferase gene reporter assay; format: cell-based; settings: human, HEK293 cells; short treatment duration of the luciferase gene reporter assay
IC50 [1] [nM],SMILES,inhibition at 1 µM [1] [%],CC50 [2] [µM]
> 1000,"Cc1ccccc1-n1nnc(C(=O)Nc2ccc3ccncc3c2)c1C [YA61691, N-(Isoquinolin-7-yl)-5-methyl-1-(o-tolyl)-1H-1,2,3-triazole-4-carboxamide]",–,> 92
251,"CC(C)(C)c1c(C(=O)Nc2nc3ccccc3s2)nnn1-c1ccccc1F [YA6176, N-(Benzo[d]thiazol-2-yl)-5-(tert-butyl)-1-(2-fluorophenyl)-1H-1,2,3-triazole-4-carboxamide]",58,> 92
220,"Cc1c(C(=O)Nc2ncc(-c3ccccc3)s2)cnn1-c1ccccc1Br [YA6152, 1-(2-Bromophenyl)-5-methyl-N-(5-phenylthiazol-2-yl)-1H-pyrazole-4-carboxamide]",–,> 92
126,"Cc1cccc(Br)c1-n1nnc(C(=O)Nc2nc3ccccc3s2)c1C [YA1064, N-(Benzo[d]thiazol-2-yl)-1-(2-bromo-6-methylphenyl)-5-methyl-1H-1,2,3-triazole-4-carboxamide]",72,> 92
9.8,"Cc1c(C(=O)Nc2nc3ccccc3s2)cnn1-c1cccc(Cl)c1F [YA4021, N-(Benzo[d]thiazol-2-yl)-1-(3-chloro-2-fluorophenyl)-5-methyl-1H-pyrazole-4-carboxamide]",–,> 92
> 1000,Cc1ccc(-c2csc(NC(=O)c3nnn(-c4ccccc4C)c3C)n2)c(C)c1 [YA4169],–,> 92
> 1000,"Cc1ccccc1-n1nnc(C(=O)Nc2nc(-c3ccccc3)c(-c3ccccc3)s2)c1C [YA4133, N-(4,5-Diphenylthiazol-2-yl)-5-methyl-1-(o-tolyl)-1H-1,2,3-triazole-4-carboxamide]",49,> 92
> 1000,"Cc1ccccc1-n1nnc(C(=O)Nc2ccc3ncccc3c2)c1C [YA6056, 5-Methyl-N-(quinolin-6-yl)-1-(o-tolyl)-1H-1,2,3-triazole-4-carboxamide]",–,> 92
> 1000,"Cc1ccccc1-n1ncc(C(=O)Nc2ccc(-c3ccccc3)cc2)c1C [YA7016, N-([1,1′-biphenyl]-4-yl)-5-methyl-1-(o-tolyl)-1H-pyrazole-4-carboxamide]",–,> 92
2.5,"Cc1c(C(=O)Nc2nc3ccccc3s2)nnn1-c1c(F)cccc1F [YA6090, N-(Benzo[d]thiazol-2-yl)-1-(2,6-difluorophenyl)-5-methyl-1H-1,2,3-triazole-4-carboxamide]",97,> 92
4.1,"Cc1ccccc1-n1nnc(C(=O)Nc2ccc3ccccc3n2)c1C [FX1128, reference compound]",–,> 92
> 1000,"O=C(Nc1ccc2ccccc2n1)c1nnn(-c2ccccc2)n1 [YA6171, 2-Phenyl-N-(quinolin-2-yl)-2H-tetrazole-5-carboxamide]",–,> 92
148,Cc1ccccc1-n1nnc(C(=O)Nc2ccc3cc(B4OC(C)(C)C(C)(C)O4)ccc3n2)c1C [YA6063],–,> 92
17,"Cc1c(C(=O)Nc2nc3ccccc3s2)nnn1-c1ccccc1C(F)(F)F [YA6089, N-(Benzo[d]thiazol-2-yl)-5-methyl-1-(2-(trifluoromethyl)phenyl)-1H-1,2,3-triazole-4-carboxamide]",89,> 92
6.7,"CCc1ccccc1-n1ncc(C(=O)Nc2nc3ccccc3s2)c1C [YA4009, N-(Benzo[d]thiazol-2-yl)-1-(2-ethylphenyl)-5-methyl-1H-pyrazole-4-carboxamide]",–,> 92

# The next lines start with the molecule.
SMILES,IC50 [1] [nM],inhibition at 1 µM [1] [%],CC50 [2] [µM]
"Cc1cccc(F)c1-n1nnc(C(=O)Nc2nc3ccccc3s2)c1C [YA1042, N-(Benzo[d]thiazol-2-yl)-1-(2-fluoro-6-methylphenyl)-5-methyl-1H-1,2,3-triazole-4-carboxamide]",3.3,92,> 92
"Cc1c(C(=O)Nc2nc3ccccc3s2)nnn1-c1ccccc1F [YA4029, N-(benzo[d]thiazol-2-yl)-1-(2-fluorophenyl)-5-methyl-1H-1,2,3-triazole-4-carboxamide]",0.46,100,> 92
O=C(Nc1nc2ccccc2s1)c1csc(-c2ccccc2)n1 [YA6082],470,70,> 92
"Cc1ccccc1-n1cc(C(=O)Nc2ccc3ccccc3n2)nn1 [YA70131, N-(Quinolin-2-yl)-1-(o-tolyl)-1H-1,2,3-triazole-4-carboxamide]",> 1000,–,> 92
"Cc1c(C(=O)Nc2nc3ccccc3s2)nnn1-c1ccc(F)cc1F [YA1046, N-(Benzo[d]thiazol-2-yl)-1-(2,4-difluorophenyl)-5-methyl-1H-1,2,3-triazole-4-carboxamide]",> 1000,40,> 92
"O=C(Nc1cnc2ccccc2n1)c1nnn(-c2ccccc2)n1 [YA6177, 2-Phenyl-N-(quinoxalin-2-yl)-2H-tetrazole-5-carboxamide]",> 1000,–,> 92
"Cc1c(C(=O)Nc2nc3ccccc3s2)cnn1-c1ccccc1F [YA4007, N-(Benzo[d]thiazol-2-yl)-1-(2-fluorophenyl)-5-methyl-1H-pyrazole-4-carboxamide]",1.3,–,> 92
"Cc1ccccc1-n1nnc(C(=O)Nc2nc3c(Cl)cccc3s2)c1C [YA4095, N-(4-Chlorobenzo[d]thiazol-2-yl)-5-methyl-1-(o-tolyl)-1H-1,2,3-triazole-4-carboxamide]",> 1000,8,> 92
"Cc1ccccc1-n1ncc(C(=O)Nc2ccc(-c3ccccc3)cn2)c1C [YA7018, 5-Methyl-N-(5-phenylpyridin-2-yl)-1-(o-tolyl)-1H-pyrazole-4-carboxamide]",> 1000,–,> 92
"Cc1ccccc1-n1nnc(C(=O)Nc2ccc3ccccc3n2)n1 [YA70031, N-(Quinolin-2-yl)-2-(o-tolyl)-2H-tetrazole-5-carboxamide]",> 1000,–,> 92
"Cc1c(C(=O)Nc2cnc3ccccc3n2)nnn1-c1ccccc1Cl [YA6139, 1-(2-Chlorophenyl)-5-methyl-N-(quinoxalin-2-yl)-1H-1,2,3-triazole-4-carboxamide]",0.11,–,> 92
"Cc1c(C(=O)Nc2nc3ccccc3s2)nnn1-c1cc(F)ccc1F [YA1084, N-(Benzo[d]thiazol-2-yl)-1-(2,5-difluorophenyl)-5-methyl-1H-1,2,3-triazole-4-carboxamide]",4.7,88,> 92
"Cc1c(C(=O)Nc2cnc3ccccc3n2)nnn1-c1ccccc1C#N [YA6137, 1-(2-Cyanophenyl)-5-methyl-N-(quinoxalin-2-yl)-1H-1,2,3-triazole-4-carboxamide]",6,–,> 92
"Cc1ccccc1-n1nnc(C(=O)Nc2ccc3c(Br)cccc3n2)c1C [YA6167, N-(5-Bromoquinolin-2-yl)-5-methyl-1-(o-tolyl)-1H-1,2,3-triazole-4-carboxamide]",> 1000,–,> 92
"Cc1c(C(=O)Nc2nc3ccccc3s2)cnn1-c1c(F)cccc1Br [YA4017, N-(Benzo[d]thiazol-2-yl)-1-(2-bromo-6-fluorophenyl)-5-methyl-1H-pyrazole-4-carboxamide]",8.2,–,> 92
